Legend:
[1] = Displacement of [3H]SCH 23390 from dopamine D1 receptor in lamb striatum membrane after 1 hr
[2] = Displacement of [3H]YM 09151-2 from dopamine D2 receptor in lamb striatum membrane after 2 hrs
[3] = Displacement of [3H]R-PIA from adenosine A1 receptor in lamb striatum membrane after 1 hr

## CN1C[C@H](C(=O)N[C@@H](Cc2ccc([N+](=O)[O-])cc2)C(=O)N[C@@H](Cc2ccc(F)cc2)C(=O)N2CCCC(C(N)=O)C2)C=C2c3cccc4[nH]cc(c34)C[C@H]21 (stereo partly drawn) [(6aR,9R)-N-((S)-1-((S)-1-(3-carbamoylpiperidin-1-yl)-3-(4-fluorophenyl)-1-oxopropan-2-ylamino)-3-(4-nitrophenyl)-1-oxopropan-2-yl)-7-methyl-4,6,6a,7,8,9-hexahydroindolo[4,3-fg]quinoline-9-carboxamide]
[1]
  Kd: 700 nM
[2]
  Kd: 20 nM

## CC(C)[C@H](NC(=O)[C@H](Cc1ccc([N+](=O)[O-])cc1)NC(=O)[C@@H]1C=C2c3cccc4[nH]cc(c34)C[C@H]2N(C)C1)C(=O)N1c2ccccc2C[C@H]1C(N)=O [(6aR,9R)-N-((S)-1-((S)-1-((S)-2-carbamoylindolin-1-yl)-3-methyl-1-oxobutan-2-ylamino)-3-(4-nitrophenyl)-1-oxopropan-2-yl)-7-methyl-4,6,6a,7,8,9-hexahydroindolo[4,3-fg]quinoline-9-carboxamide]
[3]
  Kd: 100 nM
[2]
  Kd: 2000 nM

## CC(C)[C@H](NC(=O)[C@@H]1C=C2c3cccc4[nH]cc(c34)C[C@H]2N(C)C1)C(=O)N[C@@H](Cc1ccc(F)cc1)C(=O)N1CCC[C@H]1C(N)=O [(6aR,9R)-N-((S)-1-((S)-1-((S)-2-carbamoylpyrrolidin-1-yl)-3-(4-fluorophenyl)-1-oxopropan-2-ylamino)-3-methyl-1-oxobutan-2-yl)-7-methyl-4,6,6a,7,8,9-hexahydroindolo[4,3-fg]quinoline-9-carboxamide]
[1]
  Kd: 600 nM
[2]
  Kd: 16000 nM

## CC(C)[C@H](NC(=O)[C@@H]1C=C2c3cccc4[nH]cc(c34)C[C@H]2N(C)C1)C(=O)N[C@@H](Cc1ccc([N+](=O)[O-])cc1)C(=O)N1CCC[C@H]1C(N)=O [(6aR,9R)-N-((S)-1-((S)-1-((S)-2-carbamoylpyrrolidin-1-yl)-3-(4-nitrophenyl)-1-oxopropan-2-ylamino)-3-methyl-1-oxobutan-2-yl)-7-methyl-4,6,6a,7,8,9-hexahydroindolo[4,3-fg]quinoline-9-carboxamide]
[1]
  Kd: 7800 nM

## CC(C)[C@H](NC(=O)[C@H](CCC1CCCCC1)NC(=O)[C@@H]1C=C2c3cccc4[nH]cc(c34)C[C@H]2N(C)C1)C(=O)N1CCC[C@H]1C(N)=O [(6aR,9R)-N-((S)-1-((S)-1-((S)-2-carbamoylpyrrolidin-1-yl)-3-methyl-1-oxobutan-2-ylamino)-4-cyclohexyl-1-oxobutan-2-yl)-7-methyl-4,6,6a,7,8,9-hexahydroindolo[4,3-fg]quinoline-9-carboxamide]
[1]
  Kd: 1200 nM

## CC(C)[C@H](NC(=O)[C@H]1C=C2c3cccc4[nH]cc(c34)C[C@H]2N(C)C1)C(=O)N[C@@H](Cc1ccc([N+](=O)[O-])cc1)C(=O)N1CCC[C@H]1C(N)=O [(6aR,9S)-N-((S)-1-((S)-1-((S)-2-carbamoylpyrrolidin-1-yl)-3-(4-nitrophenyl)-1-oxopropan-2-ylamino)-3-methyl-1-oxobutan-2-yl)-7-methyl-4,6,6a,7,8,9-hexahydroindolo[4,3-fg]quinoline-9-carboxamide]
[1]
  Kd: 700 nM
